Legend:
LiTryR [1] = molecular target: T1, LiTryR (Leishmania infantum, UniProt A4HSF7); test: Trypanothione-dependent NADPH oxidation assay (initial velocities); type: biochemical
T1 construct: HIS (N); made in house; host or cells: E. coli BL21 (DE3) Rossetta
Method: Despite the loss of activity observed during the reaction, dependency of the initial velocities (vi) on 19a and TS2 concentrations could be fitted to a model in which a rapid equilibrium is reached between the free enzyme and inhibitor (E + I) and the enzyme/inhibitor (EI) complex (Scheme 4). This analysis, based on vi values, was performed both in a DTNB-coupled assay and in a direct NADPH-oxidation assay (Figure S1 and Table S1).
Figure S1. Noncompetitive hyperbolic inhibition of Li TryR by 19a. Initial velocities were used for determination of the KKi value and assessment of the inhibition modality of 19a by two different methods: DTNB-coupled assay (absorbance readings at 412 nm) (A) and trypanothione- dependent NADPH oxidation assay (absorbance readings at 340 nm) (B).
Lineweaver–Burk plots of reciprocal initial velocities ( vi) versus reciprocals of four TS2 concentrations (12.5, 25, 50 and 100 μM) are shown. Experimental conditions in both experiments were similar to those described in the experimental section except that for the NADPH oxidation assay NADPH concentration was raised to 500 µM, NADP+ to 100 µM and 4.8 mM of oxidized glutathione was added. Data were f itted using the hyperbolic noncompetitive- mode equation described by Leskovac: […]
Table S1. Estimation of β and Ki in the noncompetitive hyperbolic inhibition mechanism by […]

LiTryR [2] = molecular target: T1, LiTryR; test: Residual activity of LiTryR after incubation with inhibitor and 2500-fold dilution; type: biochemical; settings: LiTryR 400 nM, 25 μM inhibitor 16 h
Method: Adjustment to eq 1 (see equations in Experimental Section) of the progress curves of the reactions catalyzed by LiTryR allowed us to obtain the kobs values for six 19a concentrations (4.4, 5.9, 7.9, 10.5, 14.1, and 18.7 μM) at six different TS2 concentrations (3.1, 6.2, 12.5, 25, 50, and 100 μM) (Figures S2–S7 and Table S2). The different kobs values obtained at each substrate concentration can be used to determine the apparent inhibitory constants Ki^app and Ki*^app defined as the dissociation constant for the initial EI complex and the constant for the overall dissociation from E*I to E + I, respectively (eq 2).[42a],[42b] Based on the relationship among kobs, vi, and vs (k6 = kobs × vi/vs) at all of the trypanothione disulfide (TS2) and 19a concentrations assayed, k6 varies between 3.9 × 10^–6 and 6.5 × 10^–5 s^–1. […] Fixing this value for k6 rendered very good estimations of Ki^app and Ki*^app after the fitting process for all of the substrate concentrations assayed (Figure 3 and Table 2).
Scheme S4. Reversible sing le-step mechanism of t im e- dependent inhibition of Li TryR by […]
& A slow and reversible equilibrium between enzyme and inhibitor is governed by association and dissociation rate constants (k3 and k4, res pec tively).
Figure S13. Residual activity of Li TryR after incubation with 19a. […] Samples were diluted (2500-fold) and residual activity was evaluated. […]

T1 sequence (A4HSF7 1-491): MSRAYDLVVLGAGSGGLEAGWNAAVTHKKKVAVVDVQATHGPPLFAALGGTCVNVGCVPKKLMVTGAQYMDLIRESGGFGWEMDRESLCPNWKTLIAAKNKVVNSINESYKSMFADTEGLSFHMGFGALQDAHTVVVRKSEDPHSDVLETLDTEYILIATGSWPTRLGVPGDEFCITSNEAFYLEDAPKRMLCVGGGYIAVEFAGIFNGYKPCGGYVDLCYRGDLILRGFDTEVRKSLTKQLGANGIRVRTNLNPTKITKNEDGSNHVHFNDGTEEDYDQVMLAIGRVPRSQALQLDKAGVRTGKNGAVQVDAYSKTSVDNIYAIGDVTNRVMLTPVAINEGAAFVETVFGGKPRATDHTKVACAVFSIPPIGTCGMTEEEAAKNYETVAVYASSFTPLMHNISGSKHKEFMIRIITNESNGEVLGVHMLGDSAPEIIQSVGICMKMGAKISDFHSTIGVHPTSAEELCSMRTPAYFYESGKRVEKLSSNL

NCCCCc1cn(-c2ccc(-c3nc(-c4ccccc4)c(-c4ccccc4)s3)c(OCCN3CCNC3=O)c2)nn1.O=C(O)C(F)(F)F [19a, 1-(2-(5-(4-(4-Ammoniobutyl)-1H-1,2,3-triazol-1-yl)-2-(4,5-diphenylthiazol-2-yl)phenoxy)ethyl)imidazolidin-2-one 2,2,2-Trifluoroacetate]
Ki (LiTryR [1]): 2.5 ± 0.7 µM
β, noncompetitive hyperbolic inhibition mechanism (LiTryR [1]; NADPH oxidation assay, initial velocities, alpha value of 1): 0.2 ± 0.1
recovery of enzymatic activity after inactivation (LiTryR [2]): extremely slow process of recovery of the enzymatic activity
